{
  "source": "patent US20250249025A1",
  "about": "“DRUG DELIVERY CARRIER UTILIZING PROPERTY OF D-ALLOSE BEING UPTAKEN BY CANCER CELL, DRUG DELIVERY METHOD, AND COMPOSITION FOR TREATING RENAL CELL CARCINOMA” (NATIONAL UNIVERSITY CORPORATION KAGAWA UNIVERSITY, priority 2019, published 2025)",
  "key": {"liver tissue": {"tested_on": "liver tissue", "experiment": "Liver tissue histology in renal cell carcinoma xenograft mouse models", "type": "in vivo", "details": "xenograft mice, intraperitoneal once a day, day 35; diagnosis by a medical specialist in pathology; FIG. 8", "description": "The day when the tumor size of the renal cell carcinoma xenograft mouse models became 200 mm^3 or more was called day 0 and the intraperitoneal injection of a D-allose-containing solution was started from day 1. The solution injected is 0.4 mL of physiological saline or a solution obtained by dissolving 100 mg/kg or 400 mg/kg of D-allose in 0.4 mL physiological saline. The resulting solution was intraperitoneally injected into three groups of mice (Control, 100 mg/kg of D-allose, and 400 mg/kg of D-allose) once a day for 5 weeks in total. The body weight of the mice and the long and short diameters of the tumor were measured over time twice a week. It is to be noted that the tumor volume was obtained as a product of long diameter×short diameter×short diameter of the tumor×0.5. […]\nThe tissue of the excised tumor, kidney, and liver was fixed with a 4% paraformaldehyde phosphate buffer, embedded with paraffin, and sliced into a 4-μm thick section. The resulting sliced section was stained with hematoxylin and eosin and evaluated by a medical specialist in pathology. The influence of D-allose on the tumor tissue was evaluated by a necrosis area (%) and an image of the number of nuclear fissions (Cells/HPF). It is to be noted that the necrosis area was measured using an image recording software Nikon NIS—Elements D and figures after the decimal point were omitted. […]"}, "[1]": {"tested_on": "human renal cell carcinoma cell line ACHN", "experiment": "Rare sugar uptake experiment, sugar content in disrupted cell suspension of ACHN", "type": "cell-based", "description": "An uptake amount of a rare sugar, which had been added to a medium, into carcinoma cells was analyzed using the cell lines of three types of cancers. As the rare sugar, four kinds, that is, D-allose, D-allulose (D-psicose), L-allulose (L-psicose), and allitol were used, while D-glucose and fructose were used as a monosaccharide which was not a rare sugar.\nCells of each of the cell lines were cultured in RPMI-1640 media and during culturing, six sugars were each added to the resulting media and cultured. After culturing, an amount of each sugar taken up into the cells was analyzed. The medium to which no sugar was added during culturing was used as a control.\nUsed were human bladder carcinoma cell lines (RT112, 253), and J82), human prostatic carcinoma cell lines (LNCa, Du145, and PC-3), and human renal cell carcinoma cell lines (ACHN, Caki-I, and Caki-II).\nAfter cells were cultured in RPMI-1640 (2000 mg D-glucose/L) media, the above monosaccharides and rare sugars were added to the resulting media, respectively. Described specifically, they were following seven combinations: RPMI-1640 alone (control), RPMI-1640+D-glucose, RPMI-1640+L-allulose, RPMI-1640+D-allulose, RPMI-1640+D-fructose, RPMI-1640+D-allose, and RPMI-1640+D-allitol. The final concentration of the sugar in the medium was adjusted to 10 mM and no sugar was added in the control.\nFive-ml portions of a 3.0×10^4 cells/ml cell suspension prepared using RPMI-1640 were seeded in dishes having a diameter of 6 cm (1.5×10^5 cells/dish) and cultured for 24 hours in the RPMI-1640 medium containing 2000 mg/l of D-glucose as a nutrient source. Twenty-four hours later, the media were changed to the culture solutions containing the monosaccharides and rare sugars described above in 2), respectively, followed by culturing for 48 hours.\nAfter culturing for 48 hours, the attached human carcinoma cells were mechanically separated and collected in a Spitz tube together with the culture solution and floating cells. After the supernatant formed by centrifugation (4° C., 1200 rpm, and 5 minutes) was removed to obtain cell pellets alone, 5 ml of a phosphate buffer physiological saline (PBS) was added for the purpose of washing to obtain a cell suspension of the cell pellets. A gain, the resulting cell suspension was centrifuged at 4° C. and 1200 rpm for 5 minutes and the supernatant was removed. To the cell pellets after washing was added 1 ml of pure water to suspend them therein. Ultrasonic disruption (intensity: 40%, 30 seconds) was then performed and the monosaccharide in the disrupted cell suspension was labeled with ABEE, followed by analysis by HPLC. From the area thus obtained, the sugar content in the cells was determined using a calibration curve. With respect to the ketose, two peaks were found after labeling with ABEE so that the sugar content in the cells was determined from the calibration curves of both peaks."}, "[2]": {"tested_on": "renal cell carcinoma cell line (Caki-II)", "experiment": "Cell survival assay (MTT assay), Caki-II", "type": "cell-based, human", "details": "10 mM, 25 mM and 50 mM in MEM, 24 hours, compared with Control (p<0.05), FIG. 3", "description": "The antitumor effect of rare sugars was analyzed using the three human renal cell carcinoma cell lines (ACHN, Caki-I, and Caki-II) used in Example 1. As the rare sugars, used were the following ten rare sugars: L-allulose, D-allulose, D-allose, L-fructose, D-mannose, L-sorbose, D-tagatose, D-galactose, D-sorbose, and L-tagatose, while as monosaccharides not belonging to rare sugars, D-glucose and D-fructose were used.\nAs a medium, a minimum essential medium (MEM) containing 1000 mg/l of D-glucose was used. By adjusting it to contain 10 mM, 25 mM, and 50 mM of each of the monosaccharides or rare sugars and using thus-obtained MEMs [shown by (10), (25), and (50) in the drawing], an antitumor effect of the rare sugars was evaluated.\nA 5.0×10^4 cells/ml of each of cell suspensions was formed using MEM. The resulting suspension (0.1 ml/well) was distributed in a 96-well plate, followed by culturing for 24 hours. […]\nThe MTT assay is one of test methods for measuring survival and makes use of a color reaction of an insoluble formazan dye (blue) caused by the reduction of MTT which is a tetrazolium salt. […] The cell viability is determined by measuring this color reaction with a microplate reader."}},
  "data": [
    {"smiles": "O=C[C@H](O)[C@H](O)[C@H](O)[C@H](O)CO", "note": "[D-allose]", "values": [
      {"measurement": "Influence on the liver tissue", "setting": "liver tissue", "result": "No influence"},
      {"measurement": "D-glucose content in cell", "setting": "[1]; ACHN, named sugar added to RPMI-1640 at 10 mM, 48 hours, HPLC after ABEE labeling", "result": 1.8, "unit": "µg"},
      {"measurement": "Content in cell of the added sugar", "setting": "[1]; human, 48 h, 10 mM", "result": 11.2, "unit": "µg"},
      {"measurement": "Viability", "setting": "[2]", "result": "significantly reduced the viability"}
    ]}
  ]
}
